Measurements from ChEMBL document CHEMBL1201862, “PubChem BioAssay data set” (2004).
Calls of active or inactive are those of the source.

How the values were obtained:
[1] = target: T1, Mannose-6-phosphate isomerase (Homo sapiens, UniProt P34949); test: MPI enzyme activity inhibition – biochemical, fluorescence intensity, coupled assay, primary screen (AID 1209)
T1 sequence (P34949 whole entry): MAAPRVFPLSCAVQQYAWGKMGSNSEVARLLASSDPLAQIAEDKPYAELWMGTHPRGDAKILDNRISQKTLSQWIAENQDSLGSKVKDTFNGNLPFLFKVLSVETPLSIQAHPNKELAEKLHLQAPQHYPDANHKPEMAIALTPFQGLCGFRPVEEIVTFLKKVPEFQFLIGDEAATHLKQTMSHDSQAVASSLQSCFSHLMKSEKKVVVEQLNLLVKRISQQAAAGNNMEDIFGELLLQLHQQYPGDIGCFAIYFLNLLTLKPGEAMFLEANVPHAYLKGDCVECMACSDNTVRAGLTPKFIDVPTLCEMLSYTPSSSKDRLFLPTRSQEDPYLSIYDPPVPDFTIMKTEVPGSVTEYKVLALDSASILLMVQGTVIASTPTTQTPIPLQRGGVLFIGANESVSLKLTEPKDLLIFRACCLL

[2] = viability of PTEN-deleted HCT116 cells – cell-based, HCT116 PTEN knockout, dose response (AID 1047); type: functional;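 also: HCT116 colon tumor cells with PTEN knocked out; cells exposed to compound for 60 hours before readout; potency for loss of cell viability measured by luminescence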
[3] = target: T2, Apoptotic protease-activating factor 1 (Homo sapiens, UniProt O14727); type: functional
T2 sequence (O14727 whole entry): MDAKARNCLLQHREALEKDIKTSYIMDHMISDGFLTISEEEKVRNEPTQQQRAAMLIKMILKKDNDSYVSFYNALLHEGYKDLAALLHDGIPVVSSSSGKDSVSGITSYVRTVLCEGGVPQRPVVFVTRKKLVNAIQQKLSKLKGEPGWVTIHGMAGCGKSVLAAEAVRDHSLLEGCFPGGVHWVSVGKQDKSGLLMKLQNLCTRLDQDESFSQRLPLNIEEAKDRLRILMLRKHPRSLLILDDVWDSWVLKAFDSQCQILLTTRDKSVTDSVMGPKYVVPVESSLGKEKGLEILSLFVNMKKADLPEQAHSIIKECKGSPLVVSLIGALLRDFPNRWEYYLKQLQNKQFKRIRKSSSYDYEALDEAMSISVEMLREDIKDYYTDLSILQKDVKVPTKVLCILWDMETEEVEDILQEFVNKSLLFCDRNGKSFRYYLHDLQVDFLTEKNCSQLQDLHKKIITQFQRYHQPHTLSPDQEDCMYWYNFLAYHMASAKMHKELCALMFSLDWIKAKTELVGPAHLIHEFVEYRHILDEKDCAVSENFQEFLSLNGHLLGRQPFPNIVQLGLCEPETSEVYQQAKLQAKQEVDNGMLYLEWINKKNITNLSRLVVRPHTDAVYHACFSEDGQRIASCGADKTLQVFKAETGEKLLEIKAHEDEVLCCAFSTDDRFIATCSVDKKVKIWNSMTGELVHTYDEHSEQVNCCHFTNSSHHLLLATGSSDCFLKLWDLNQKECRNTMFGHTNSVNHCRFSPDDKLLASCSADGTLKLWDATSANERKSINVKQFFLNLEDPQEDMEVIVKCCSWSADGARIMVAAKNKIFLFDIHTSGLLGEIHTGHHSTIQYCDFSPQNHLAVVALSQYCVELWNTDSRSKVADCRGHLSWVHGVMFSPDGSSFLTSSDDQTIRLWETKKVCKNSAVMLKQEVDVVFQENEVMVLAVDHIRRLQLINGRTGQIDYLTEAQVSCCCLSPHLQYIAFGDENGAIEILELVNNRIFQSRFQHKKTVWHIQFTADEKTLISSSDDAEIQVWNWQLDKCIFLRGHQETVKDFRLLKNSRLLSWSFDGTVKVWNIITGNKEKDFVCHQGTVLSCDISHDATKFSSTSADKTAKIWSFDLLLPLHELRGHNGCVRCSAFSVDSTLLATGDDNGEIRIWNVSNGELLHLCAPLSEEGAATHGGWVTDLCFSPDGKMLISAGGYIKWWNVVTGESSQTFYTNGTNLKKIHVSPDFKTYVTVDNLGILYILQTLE

[4] = target: T3, Tyrosine-protein phosphatase non-receptor type 22 (Homo sapiens, UniProt Q9Y2R2); test: PTPN22 lymphoid phosphatase activity blockers – biochemical, fluorescence intensity, uHTS (AID 1779)
T3 sequence (Q9Y2R2 whole entry): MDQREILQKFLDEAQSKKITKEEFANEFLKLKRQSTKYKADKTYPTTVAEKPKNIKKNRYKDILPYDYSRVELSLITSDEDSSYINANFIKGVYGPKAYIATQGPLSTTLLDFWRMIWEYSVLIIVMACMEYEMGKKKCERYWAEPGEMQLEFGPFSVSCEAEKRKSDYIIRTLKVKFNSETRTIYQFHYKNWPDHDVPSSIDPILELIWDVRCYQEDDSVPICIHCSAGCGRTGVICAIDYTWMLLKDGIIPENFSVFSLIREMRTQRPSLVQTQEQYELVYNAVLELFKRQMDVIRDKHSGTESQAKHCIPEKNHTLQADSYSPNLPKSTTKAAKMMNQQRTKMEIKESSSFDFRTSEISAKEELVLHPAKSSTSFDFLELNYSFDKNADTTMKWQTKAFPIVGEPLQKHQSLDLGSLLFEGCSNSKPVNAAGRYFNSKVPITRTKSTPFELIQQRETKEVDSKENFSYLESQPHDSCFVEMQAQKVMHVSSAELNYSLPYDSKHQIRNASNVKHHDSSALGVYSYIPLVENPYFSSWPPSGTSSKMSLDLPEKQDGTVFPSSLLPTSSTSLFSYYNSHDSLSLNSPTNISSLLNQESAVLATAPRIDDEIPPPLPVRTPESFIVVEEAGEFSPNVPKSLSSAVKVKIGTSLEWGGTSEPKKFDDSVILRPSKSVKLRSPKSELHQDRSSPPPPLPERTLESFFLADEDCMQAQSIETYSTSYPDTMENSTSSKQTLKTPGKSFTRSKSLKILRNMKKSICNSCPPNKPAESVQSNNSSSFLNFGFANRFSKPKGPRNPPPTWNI

[5] = target: T3, Tyrosine-protein phosphatase non-receptor type 22; type: functional
[6] = HEK-293T cell viability reduction – luminescence, B-cell screen hits, cytotoxicity control for BCR NF-kB inhibitor project, dose response (AID 489021); type: functional, cell-based;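 also: HEK-293T cells carrying an NF-kB luciferase reporter; cells exposed to compound for about 14 hours before viability readout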

For `COc1ccc(Nc2ccc3c(c2)=NC2(CCCCC2)[N+]=3[O-])cc1`, the IC50 [1] was > 50 µM (not active), the EC50 [2] was 2.49 µM (active) and the IC50 [3] was 12.2 µM (active).
In the case of `COc1ccc(/C=C2\SC(=S)N(CCC(=O)Nc3ccc(C(=O)O)cc3)C2=O)cc1OC`, the IC50 [4] is reported as 4.29 µM (active), the IC50 [5] is reported as 2.75 µM (active) and the IC50 [6] is reported as > 80 µM (inactive).
